Counter-ions that a name gives are not always drawn.
Target: T1, CYP11A1 (Homo sapiens, UniProt P05108)
T1 construct: human H295R adrenocortical carcinoma cell line was used as source of enzyme; endogenous in cells; host or cells: H295R human adrenocortical carcinoma cells
T1 sequence (P05108 40-521): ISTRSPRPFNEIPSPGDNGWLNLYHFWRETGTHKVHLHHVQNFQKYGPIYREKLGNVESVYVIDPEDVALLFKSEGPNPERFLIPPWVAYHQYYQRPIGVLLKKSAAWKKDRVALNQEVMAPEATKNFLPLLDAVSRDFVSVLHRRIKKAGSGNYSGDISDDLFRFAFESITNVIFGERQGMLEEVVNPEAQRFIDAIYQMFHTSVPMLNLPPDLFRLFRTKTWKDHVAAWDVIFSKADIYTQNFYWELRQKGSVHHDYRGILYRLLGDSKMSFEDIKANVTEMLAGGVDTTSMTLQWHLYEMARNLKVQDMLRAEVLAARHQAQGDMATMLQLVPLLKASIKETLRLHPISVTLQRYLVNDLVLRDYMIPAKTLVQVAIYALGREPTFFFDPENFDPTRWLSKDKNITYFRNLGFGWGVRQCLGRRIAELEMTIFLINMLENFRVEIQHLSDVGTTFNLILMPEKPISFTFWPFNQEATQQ
Test: CYP11A1 inhibition: modified isocaproic acid release assay (IARA) in H295R cells
Format: cell-based
Details: human H295R adrenocortical carcinoma cells treated three days, 3 nM [24,25-3H]-labelled cholesterol, 1% DMSO, 10 concentrations in duplicates; read-out: IC50 of the test compounds on CYP11A1 inhibition
Summary of the method: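 H295R adrenocortical cells treated three days with test compounds at 10 concentrations in duplicate plus 3 nM [24,25-3H]-cholesterol, 1% DMSO final. Released radiolabelled isocaproic acid measured by scintillation counting after dextran-coated charcoal extraction; IC50 determined.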

Row | Structure (SMILES) | IC50
1 | CS(=O)(=O)N1CCC(F)(COc2coc(CN3Cc4ccc(F)cc4C3)cc2=O)CC1 [Compound 237, 5-((4-Fluoro-1-(methylsulfonyl)piperidin-4-yl)methoxy)-2-((5-fluoroisoindolin-2-yl)methyl)-4H-pyran-4-one] | 150 to 300 nM
2 | CS(=O)(=O)N1CCC(COc2coc(CN3Cc4ccccc4C3)cc2=O)C(O)C1 (stereo not drawn) [Compound 193, 5-((3-Hydroxy-1-(methylsulfonyl)piperidin-4-yl)methoxy)-2-(isoindolin-2-yl-methyl)-4H-pyran-4-one] | 301 to 2000 nM
3 | CS(=O)(=O)NCc1ccc(COc2coc(CN3Cc4ccccc4C3)cc2=O)cc1 [Compound 113, N-(4-(((6-(Isoindolin-2-ylmethyl)-4-oxo-4H-pyran-3-yl)oxy)methyl)benzyl)-methanesulfonamide] | < 150 nM
4 | CC(C)(CO)NC(=O)c1ccc(COc2coc(CN3Cc4ccccc4C3)cc2=O)cc1 [Compound 283, N-(1-hydroxy-2-methylpropan-2-yl)-4-(((6-(isoindolin-2-ylmethyl)-4-oxo-4H-pyran-3-yl)oxy)methyl)benzamide] | 150 to 300 nM
5 | CC1(COc2coc(CN3Cc4ccccc4C3)cc2=O)CCN(S(C)(=O)=O)CC1 [Compound 191, 2-(Isoindolin-2-ylmethyl)-5-((4-methyl-1-(methylsulfonyl)piperidin-4-yl)-methoxy)-4H-pyran-4-one] | 150 to 300 nM
6 | O=C(c1ccc(COc2coc(CN3Cc4ccccc4C3)cc2=O)cc1)N1CCCCC1 [Compound 128, 2-(Isoindolin-2-ylmethyl)-5-((4-(piperidine-1-carbonyl)benzyl)oxy)-4H-pyran-4-one] | 150 to 300 nM
7 | O=CN1CCC(COc2coc(CN3Cc4ccccc4C3)cc2=O)CC1 [Compound 284, 4-(((6-(Isoindolin-2-ylmethyl)-4-oxo-4H-pyran-3-yl)oxy)methyl)piperidine-1-carbaldehyde, HCl] | 150 to 300 nM
8 | CS(=O)(=O)N1CCC(COc2coc(CN3Cc4ccc(OC(F)(F)F)cc4C3)cc2=O)CC1 [Compound 205, 5-((1-(Methylsulfonyl)piperidin-4-yl)methoxy)-2-((5-(trifluoromethoxy)-isoindolin-2-yl)methyl)-4H-pyran-4-one] | < 150 nM
9 | CN(C)S(=O)(=O)N1CCC(COc2coc(CN3Cc4ccccc4C3)cc2=O)CC1 [Compound 225, 4-(((6-(Isoindolin-2-ylmethyl)-4-oxo-4H-pyran-3-yl)oxy)methyl)-N,N-dimethyl-piperidine-1-sulfonamide] | < 150 nM
10 | CCS(=N)(=O)c1ccc(COc2coc(CN3Cc4ccccc4C3)cc2=O)cc1 (stereo not drawn) [Compound 101, 5-((4-(Ethylsulfonimidoyl)benzyl)oxy)-2-(isoindolin-2-ylmethyl)-4H-pyran-4-one] | 150 to 300 nM
11 | O=C(c1ccc(COc2coc(CN3Cc4ccccc4C3)cc2=O)cc1)N1CCC(O)CC1 [Compound 152, 5-((4-(4-Hydroxypiperidine-1-carbonyl)benzyl)oxy)-2-(isoindolin-2-ylmethyl)-4H-pyran-4-one] | 301 to 2000 nM
12 | CS(=N)c1ccc(COc2coc(CN3Cc4ccccc4C3)cc2=O)cc1 (stereo not drawn) [Compound 85, 2-(Isoindolin-2-ylmethyl)-5-((4-(S-methylsulfinimidoyl)benzyl)oxy)-4H-pyran-4-one] | 150 to 300 nM
13 | O=C(c1ccc(COc2coc(CN3Cc4ccccc4C3)cc2=O)cc1)N1CC(F)(F)C1 [Compound 158, 5-((4-(3,3-Difluoroazetidine-1-carbonyl)benzyl)oxy)-2-(isoindolin-2-ylmethyl)-4H-pyran-4-one] | 150 to 300 nM
14 | CS(=O)(=O)N1CCC(CCOc2coc(CN3Cc4ccccc4C3)cc2=O)CC1 [Compound 198, 2-(Isoindolin-2-ylmethyl)-5-(2-(1-(methylsulfonyl)piperidin-4-yl)ethoxy)-4H-pyran-4-one] | 150 to 300 nM

Next, values leading:

Row | IC50 | Structure (SMILES)
15 | 150 to 300 nM | COCCN(C)S(=O)(=O)c1ccc(COc2coc(CN3Cc4ccccc4C3)cc2=O)cc1 [Compound 20, 4-(((6-(Isoindolin-2-ylmethyl)-4-oxo-4H-pyran-3-yl)oxy)methyl)-N-(2-methoxyethyl)-N-methylbenzenesulfonamide]
16 | < 150 nM | O=c1cc(CN2Cc3ccc(F)cc3C2)occ1OCC1CCN(S(=O)(=O)C2CC2)CC1 [Compound 190, 5-((1-(Cyclopropylsulfonyl)piperidin-4-yl)methoxy)-2-((5-fluoroisoindolin-2-yl)methyl)-4H-pyran-4-one]
17 | 150 to 300 nM | C=CC(=O)N1CCC(COc2coc(CN3Cc4ccccc4C3)cc2=O)CC1 [Compound 258, 5-((1-Acryloylpiperidin-4-yl)methoxy)-2-(isoindolin-2-ylmethyl)-4H-pyran-4-one]
18 | 150 to 300 nM | CC(C)S(=O)(=O)N1CCC(COc2coc(CN3Cc4ccccc4C3)cc2=O)CC1 [Compound 270, 2-(Isoindolin-2-ylmethyl)-5-((1-(isopropylsulfonyl)piperidin-4-yl)methoxy)-4H-pyran-4-one]
19 | 301 to 2000 nM | CC(C)(C)OC(=O)N1CCC(CCOc2coc(CN3Cc4ccccc4C3)cc2=O)CC1 [Compound 197, tert-Butyl 4-(2-((6-(isoindolin-2-ylmethyl)-4-oxo-4H-pyran-3-yl)oxy)ethyl)-piperidine-1-carboxylate]
20 | 301 to 2000 nM | CC(C)CC(=O)N[C@@H]1C=C[C@H](COc2coc(CN3Cc4ccccc4C3)cc2=O)C1 (relative stereo) [Compound 275, Cis-N-(4-(((6-(isoindolin-2-ylmethyl)-4-oxo-4H-pyran-3-yl)oxy)methyl)cyclo-pent-2-en-1-yl)-3-methylbutanamide, Formate]
21 | < 150 nM | CC(=O)N(C)S(=O)(=O)c1ccc(COc2coc(CN3Cc4ccccc4C3)cc2=O)cc1 [Compound 70, N-((4-(((6-(Isoindolin-2-ylmethyl)-4-oxo-4H-pyran-3-yl)oxy)methyl)phenyl)-sulfonyl)-N-methylacetamide]
22 | 301 to 2000 nM | O=C(NCCCO)c1ccc(COc2coc(CN3Cc4ccccc4C3)cc2=O)cc1 [Compound 282, N-(3-Hydroxypropyl)-4-(((6-(isoindolin-2-ylmethyl)-4-oxo-4H-pyran-3-yl)oxy)methyl)benzamide]
23 | 150 to 300 nM | CS(=O)(=O)N1CCC(F)(COc2coc(CN3Cc4ccccc4C3)cc2=O)CC1 [Compound 235, 5-((4-Fluoro-1-(methylsulfonyl)piperidin-4-yl)methoxy)-2-(isoindolin-2-yl-methyl)-4H-pyran-4-one]
24 | < 150 nM | CCCC(=O)N1CCC(COc2coc(CN3Cc4ccccc4C3)cc2=O)CC1 [Compound 221, 5-((1-Butyrylpiperidin-4-yl)methoxy)-2-(isoindolin-2-ylmethyl)-4H-pyran-4-one]
25 | < 150 nM | CN(C)C(=O)/C=C/c1ccc(COc2coc(CN3Cc4ccccc4C3)cc2=O)cc1 [Compound 146, (E)-3-(4-(((6-(Isoindolin-2-ylmethyl)-4-oxo-4H-pyran-3-yl)oxy)methyl)phenyl)-N,N-dimethylacrylamide]
26 | 150 to 300 nM | COCCS(=O)(=O)c1ccc(COc2coc(CN3Cc4ccc(F)cc4C3)cc2=O)cc1 [Compound 29, 2-((5-Fluoroisoindolin-2-yl)methyl)-5-((4-((2-methoxyethyl)sulfonyl)benzyl)oxy)-4H-pyran-4-one]
27 | 150 to 300 nM | CN(C)C(=O)Cc1ccc(COc2coc(CN3Cc4ccccc4C3)cc2=O)cc1 [Compound 136, 2-(4-(((6-(Isoindolin-2-ylmethyl)-4-oxo-4H-pyran-3-yl)oxy)methyl)phenyl)-N,N-dimethylacetamide]

From US11098032B2, “Pyran dervatives as CYP11A1 (cytochrome P450 monooxygenase 11A1) inhibitors” (ORION CORPORATION, priority 2016, dated 2021)
